In article PMC3395597, “Structural Basis for the ABO Blood-Group Dependence of Plasmodium falciparum Rosetting” (PLoS Pathogens, 2012):

Molecular target: Head(wt) (NTS-DBL1α1-CIDR1γ of PfEMP1-VarO) (Plasmodium falciparum, UniProt B7T1P0)
Test: surface plasmon resonance (Biacore […]), immobilised trisaccharide-BSA
Assay type: binding
Conditions: labelled compound: multivalent BSA conjugate, 6 atom spacer, average 21 sugar residues per BSA; PBS, 25 °C; protein 10 nM-1 µM

Compound: C[C@@H]1O[C@@H](O[C@H]2C(O)O[C@H](CO)[C@H](O)[C@@H]2O[C@H]2O[C@H](CO)[C@H](O)[C@H](O)[C@H]2O)[C@@H](O)[C@H](O)[C@@H]1O (stereo partly shown) [blood group B trisaccharide]
- surface plasmon resonance (Biacore 2000), immobilised trisaccharide-BSA: Direct binding of the recombinant Head(wt)domain to the blood group A and B trisaccharides
